Converted amounts (≈) assume the structure as drawn.

The source of these data is patent US20120101100A1 (priority 2008, published 2012).

The test system of one assay is Streptococcus pneumoniae. Nature of the assay: Bacterial susceptibility testing in liquid media (MIC). The format is cell-based. To be noted: against Streptococcus pneumoniae; lowest concentration reducing growth by 80% or more; 37° C., 24 hrs. The procedure: Compounds were tested for antimicrobial activity by susceptibility testing in liquid media. Compounds were dissolved in dimethylsulfoxide and tested in 10 doubling dilutions in the susceptibility assays. The organisms used in the assay were grown overnight on suitable agar media and then suspended in a liquid medium appropriate for the growth of the organism. The suspension was a 0.5 McFarland and a further 1 in 10 dilution was made into the same liquid medium to prepare the final organism suspension in 100 μL. Plates were incubated under appropriate conditions at 37° C. for 24 hrs prior to reading. The Minimum Inhibitory Concentration was determined as the lowest drug concentration able to reduce growth by 80% or more.

The target of the next assay is S. aureus GyrB ATPase (Staphylococcus aureus, UniProt P0A0K8). The assay is described as follows: S. aureus (SAU) GyrB ATPase inhibition, malachite green phosphate detection (E. coli GyrA + S. aureus GyrB). As to conditions: for inhibition at 1 µM: compound concentration of 1.0 μM unless otherwise noted, average value where assay was carried out more than once, read-out: S. aureus (SAU) GyrB ATPase % Inhibition. The assay is classed as biochemical. A digest of the protocol:
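Phosphate from ATP hydrolysis (500 μM ATP) read as malachite green/molybdate absorbance at 650 nm after acid quench. Reaction: 1.25 nM S. aureus GyrB plus 1.25 nM E. coli GyrA, sheared DNA, Hepes pH 7.5 with Mg2+. IC50 fitted over 10 concentrations, normalised to DMSO (2%) and novobiocin (2 μM) controls.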

Sequence of S. aureus GyrB ATPase (P0A0K8 whole entry): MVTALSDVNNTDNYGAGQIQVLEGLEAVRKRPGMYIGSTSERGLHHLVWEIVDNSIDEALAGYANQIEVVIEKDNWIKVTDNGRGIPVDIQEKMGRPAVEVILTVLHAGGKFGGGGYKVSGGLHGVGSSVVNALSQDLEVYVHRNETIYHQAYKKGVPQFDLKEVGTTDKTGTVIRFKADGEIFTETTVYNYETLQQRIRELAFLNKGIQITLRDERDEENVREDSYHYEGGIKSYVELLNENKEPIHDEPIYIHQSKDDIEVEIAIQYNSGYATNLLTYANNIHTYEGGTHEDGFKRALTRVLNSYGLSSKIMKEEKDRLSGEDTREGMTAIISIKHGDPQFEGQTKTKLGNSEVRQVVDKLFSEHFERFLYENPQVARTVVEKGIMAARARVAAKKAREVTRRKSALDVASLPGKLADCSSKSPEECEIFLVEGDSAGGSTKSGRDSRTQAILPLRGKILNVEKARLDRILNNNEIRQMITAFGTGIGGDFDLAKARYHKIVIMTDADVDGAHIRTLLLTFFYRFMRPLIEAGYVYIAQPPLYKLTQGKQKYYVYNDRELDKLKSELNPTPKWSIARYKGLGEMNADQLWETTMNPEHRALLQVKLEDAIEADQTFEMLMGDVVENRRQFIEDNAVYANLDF
Sequence of S. aureus GyrB ATPase (P0AES4 whole entry, further chain): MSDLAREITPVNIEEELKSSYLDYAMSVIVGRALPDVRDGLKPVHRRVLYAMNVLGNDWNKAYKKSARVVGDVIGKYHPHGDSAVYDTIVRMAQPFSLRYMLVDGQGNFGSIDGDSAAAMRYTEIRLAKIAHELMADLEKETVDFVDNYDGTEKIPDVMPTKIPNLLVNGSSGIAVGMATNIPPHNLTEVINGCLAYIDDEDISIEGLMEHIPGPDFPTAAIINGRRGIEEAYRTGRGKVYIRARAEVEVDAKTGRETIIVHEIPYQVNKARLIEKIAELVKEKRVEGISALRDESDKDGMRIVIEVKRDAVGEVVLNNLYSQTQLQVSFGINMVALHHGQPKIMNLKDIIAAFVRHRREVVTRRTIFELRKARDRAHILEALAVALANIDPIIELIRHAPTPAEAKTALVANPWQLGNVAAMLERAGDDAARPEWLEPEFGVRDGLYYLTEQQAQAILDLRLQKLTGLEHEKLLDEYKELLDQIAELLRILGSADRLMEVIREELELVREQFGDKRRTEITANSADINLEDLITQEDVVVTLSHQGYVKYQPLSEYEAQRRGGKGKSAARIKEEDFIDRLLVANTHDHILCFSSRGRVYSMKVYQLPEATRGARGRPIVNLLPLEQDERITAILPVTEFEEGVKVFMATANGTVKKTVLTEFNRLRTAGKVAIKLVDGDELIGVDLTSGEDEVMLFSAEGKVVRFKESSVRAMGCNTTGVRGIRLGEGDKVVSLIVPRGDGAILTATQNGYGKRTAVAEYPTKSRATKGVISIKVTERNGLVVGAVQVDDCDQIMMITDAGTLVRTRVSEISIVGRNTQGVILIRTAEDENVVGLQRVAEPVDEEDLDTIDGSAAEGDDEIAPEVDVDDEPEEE

Broadly, the MIC is the smallest concentration in the dilution series that meets the test's criterion for growth inhibition. A lower MIC goes with greater potency. For orientation: IC50 means the point on the concentration scale where inhibition reaches its midpoint. One may read the inhibition as how much of the control response was suppressed. `CCNC(=O)Nc1cc(-c2nc(C(F)(F)F)cs2)c(-c2cccnc2)cn1` [Example 14, 1-Ethyl-3-(4-(4-(trifluoromethyl)thiazol-2-yl)-3,3′-bipyridin-6-yl)urea] gave an MIC with Streptococcus pneumoniae of 0.39 µM (≈ 0.153 µg/mL). Besides, the IC50 at S. aureus GyrB ATPase (10 compound concentrations, 500 μM ATP) was found to be 10 nM. For the same compound, on S. aureus GyrB ATPase, the inhibition at 1 µM worked out at 86%.

Regarding `CCNC(=O)Nc1cc(-c2nc(C(F)(F)F)cs2)c(-c2cncc(-c3nnc(C(C)O)o3)c2)cn1` (centres unmarked) [Example 275, 1-ethyl-3-(5′-(5-(1-hydroxyethyl)-1,3,4-oxadiazol-2-yl)-4-(4-(trifluoromethyl)thiazol-2-yl)-3,3′-bipyridin-6-yl)urea], the inhibition at 1 µM on S. aureus GyrB ATPase amounted to 98%.

Regarding `CCNC(=O)Nc1cc(-c2nc(C(F)(F)F)cs2)c(-c2cncc(-c3nnc(COC(C)=O)o3)c2)cn1` [Example 276, (5-(6′-(3-ethylureido)-4′-(4-(trifluoromethyl)thiazol-2-yl)-3,3′-bipyridin-5-yl)-1,3,4-oxadiazol-2-yl)methyl acetate], the inhibition at 1 µM on S. aureus GyrB ATPase is 98%.

On to `CCNC(=O)Nc1cc(-c2nc(C(F)(F)F)cs2)c(-c2cncc(-c3nnc(COCCOC)o3)c2)cn1` [Example 278, 1-ethyl-3-(5′-(5-((2-methoxyethoxy)methyl)-1,3,4-oxadiazol-2-yl)-4-(4-(trifluoromethyl)thiazol-2-yl)-3,3′-bipyridin-6-yl)urea], for which the inhibition at 1 µM at S. aureus GyrB ATPase was 68%.

Consider `CCNC(=O)Nc1cc(-c2nc(C(F)(F)F)cs2)c(-c2cncc(-c3nnc([C@H](N)C(C)C)o3)c2)cn1` [Example 280, (R)-1-(5′-(5-(1-amino-2-methylpropyl)-1,3,4-oxadiazol-2-yl)-4-(4-(trifluoromethyl)thiazol-2-yl)-3,3′-bipyridin-6-yl)-3-ethylurea], for which the inhibition at 1 µM at S. aureus GyrB ATPase was found to be 95%.

Take `CCNC(=O)Nc1cc(-c2nc(C(F)(F)F)cs2)c(-c2cncc(-c3nnc(CN)o3)c2)cn1` [Example 281, 1-(5′-(5-(aminomethyl)-1,3,4-oxadiazol-2-yl)-4-(4-(trifluoromethyl)thiazol-2-yl)-3,3′-bipyridin-6-yl)-3-ethylurea]: at S. aureus GyrB ATPase, the inhibition at 1 µM was found to be 94%.

With `CCNC(=O)Nc1cc(-c2nc(C(F)(F)F)cs2)c(-c2cncc(C3=NNC(=O)CO3)c2)cn1` [Example 282, 1-ethyl-3-(5′-(5-oxo-5,6-dihydro-4H-1,3,4-oxadiazin-2-yl)-4-(4-(trifluoromethyl)thiazol-2-yl)-3,3′-bipyridin-6-yl)urea], on S. aureus GyrB ATPase, the inhibition at 1 µM worked out at 96%.

Turning to `CCNC(=O)Nc1cc(-c2nc(C(F)(F)F)cs2)c(-c2cncc(-c3nnc(C)n3N)c2)cn1` [Example 283, 1-(5′-(4-amino-5-methyl-4H-1,2,4-triazol-3-yl)-4-(4-(trifluoromethyl)thiazol-2-yl)-3,3′-bipyridin-6-yl)-3-ethylurea], the inhibition at 1 µM on S. aureus GyrB ATPase worked out at 94%.

On to `CCNC(=O)Nc1cc(-c2cn(Cc3ccccc3)nn2)c(-c2cc(-c3n[nH]c(=O)o3)ccn2)cn1` [Example 288], for which the inhibition at 1 µM on S. aureus GyrB ATPase worked out at 91%.
